The results in this text go back to publication PMC8541911 (Molecular cell, 2021).

What all share (assay type): cell-based
Test [1] deals with μ-opioid receptor (μOR).
Test [2] concerns the target T1, human μOR receptor fused to YFP (Homo sapiens, UniProt P35372).
Test [3] deals with T1, human μOR receptor fused to YFP. The source holds these as a separate data set.
Test [4] has as its target mouse μOR receptor (Flag-μOR-2x) (Mus musculus, UniProt P42866, M72T). The test is described as follows: G protein activation assay. Conditions: Gi1-2-3 and Goa-b activation, HEK293 cells.
For test [5], the target named is SNAP-μOR receptor (Homo sapiens, UniProt P35372).
Chain of SNAP-μOR receptor (P35372 whole entry): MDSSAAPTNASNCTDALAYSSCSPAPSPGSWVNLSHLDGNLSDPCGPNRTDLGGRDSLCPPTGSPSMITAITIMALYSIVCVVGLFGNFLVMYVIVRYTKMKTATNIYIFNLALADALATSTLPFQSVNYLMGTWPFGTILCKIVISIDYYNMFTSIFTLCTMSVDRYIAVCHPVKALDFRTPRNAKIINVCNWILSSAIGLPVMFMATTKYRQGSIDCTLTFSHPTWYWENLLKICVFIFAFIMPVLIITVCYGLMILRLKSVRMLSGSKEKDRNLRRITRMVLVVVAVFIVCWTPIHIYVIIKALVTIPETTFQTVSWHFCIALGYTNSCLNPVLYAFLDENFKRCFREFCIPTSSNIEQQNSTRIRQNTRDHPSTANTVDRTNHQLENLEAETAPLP

T1 sequence (P35372 whole entry, the tested form may be a part): as the sequence (P35372 whole entry) above
Chain of mouse μOR receptor (Flag-μOR-2x) (P42866 whole entry M72T): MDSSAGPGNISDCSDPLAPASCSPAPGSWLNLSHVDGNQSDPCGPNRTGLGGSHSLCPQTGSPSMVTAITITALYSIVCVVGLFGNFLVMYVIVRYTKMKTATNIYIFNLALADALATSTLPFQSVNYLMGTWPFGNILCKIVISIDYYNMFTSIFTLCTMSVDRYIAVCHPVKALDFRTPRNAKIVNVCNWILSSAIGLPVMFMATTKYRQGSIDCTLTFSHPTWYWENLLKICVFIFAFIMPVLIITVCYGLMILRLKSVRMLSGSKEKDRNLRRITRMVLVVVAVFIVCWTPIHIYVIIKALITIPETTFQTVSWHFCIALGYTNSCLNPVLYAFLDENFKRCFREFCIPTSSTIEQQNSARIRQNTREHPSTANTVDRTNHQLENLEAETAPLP

For the compound `COc1ccsc1CNCC[C@@]1(c2ccccn2)CCOC2(CCCC2)C1` [oliceridine], the “Classification of agonism and bias” value in test [1] is reported as “G protein-biased full agonists”. Besides, the “Recruitment of β-arrestin-1/2 (response)” value in test [2] was “nearly no response”. Moreover, the “Recruitment of GRK2/5 (response)” value in test [3] is recorded as “nearly no response”. For the same compound, in test [4], the “Agonist behaviour in G protein assays” value was “full agonists”. The “μOR internalization (response)” value in test [5] is on record as “nearly no response”.

For the compound `C[C@@H](Cc1ccsc1)NC(=O)NC[C@H](Cc1ccc(O)cc1)N(C)C` [PZM21], the “Classification of agonism and bias” value in test [1] is given as “G protein-biased full agonists”. In addition, the “Agonist behaviour in G protein assays” value in test [4] is given as “full agonists”.

With “[D-Ala^2, N-Me-Phe^4, Gly^5-ol]-Enkephalin acetate salt [DAMGO]”, the “Classification of agonism and bias” value in test [1] is listed as “unbiased full agonists”.
